From article PMC11148772, “Inhibition of protein translational machinery in triple-negative breast cancer as a promising therapeutic strategy” (Cell Reports Medicine, 2024)
Values joined by “and” are separate entries in the source; they are usually repeats but may differ in a detail not shown here. Equal entries are not always repeated.

What was measured:
[1] = molecular target: T1, YB-1 and RPL11 interaction (Homo sapiens, UniProt P67809); experiment: Immunoprecipitation of YB-1; assay type: cell-based; details: MDA-MB-231 and MDA-MB-468, 1 μM
T1 construct: Immunoprecipitation of YB-1 from protein lysates of SU056-treated MDA-MB-231 and MDA-MB-468 cells using YB-1 antibody; endogenous in cells; host or cells: MDA-MB-231; MDA-MB-468
Procedure: MDA-MB-231 and MDA-MB-468 cells with and without SU056 (1 μM) treatment for 6 and 12 h respectively and were lysed using M-PER lysis solution (Thermo Scientific, #78503), supplemented with Halt protease and phosphatase inhibitor cocktail (Thermo Scientific, #78440). Precleaned 300 μg protein lysate was incubated overnight at 4°C with 3 μg YB-1 (Abcam, #ab76149) on nutating rocker. The antibody was pulled down using 20 μL Protein A/G magnetic beads (Thermo scientific #88802). After three washings, beads were resuspended in 2X SDS sample buffer followed by heating at 90°C–100°C for 5 min. Samples were resolved and probed with indicated antibodies as described in immunoblotting assay.

Pharmacokinetics study = assay type: in vivo, mouse; details: 20 mg/kg oral
Procedure: Female C57BL/6J mice of 6–7 weeks were purchased from Jackson Laboratory and housed under standard laboratory conditions. SU056 (20 mg/kg) was given by oral gavage. Blood (200–300 μL) was collected retro-orbitally in EDTA-treated tubes after 15, 30, 60, 120, 240 and 360 min of SU056 administration. Blood plasma collected by centrifugation (7000 rpm; 10 min). The concentration of SU056 in plasma was analyzed using an Agilent 6490 iFunnel triple quadrupole mass spectrometer, coupled with an Agilent 1290 infinity II UHPLC. A ZORBAX C18 analytical column (Eclipse Plus, 2.1 × 50 mm, 1.8 μm particle size) was employed in the study. To create the mobile phase, a solution was prepared with 60% water buffered with 0.1% formic acid and 4mM ammonium formate, along with a solution of 40% acetonitrile buffered with 0.1% formic acid. The mobile phase flow rate was set to 0.4 mL/min and the column temperature was adjusted to 30°C. Positive ion mode was selected for operating the electrospray ionization source. Mass spectrometer parameters were optimized as: source temperature 550°C, nebulizer gas (nitrogen) 20 psi, ion spray (IS) voltage 5000 V, collision energy 21 V. Multiple reaction monitoring (MRM) method was used for the detection of SU056 and an internal standard (IS), 4-(2-hydroxyethyl)-6-methoxy-9-phenyl-4,9-dihydrofuro[3,4-b]quinolin-1(3H)-one, a similar analogue of SU056. […] The calibration curve, created with known concentrations of SU056 and IS, enabled the calculation of unknown concentrations of SU056 in plasma at different time points. A 5 μL plasma was taken from each sample and mixed with a 10 μL of IS solution and 990 μL of MS-grade acetonitrile then vortexed for 30 s followed by a 5 min incubation at RT. The mixture was subjected to centrifugation at 11,000 RPM for 15 min at 4°C, leading to the collection of the supernatant which was further cleaned by re-centrifugation. The concentration of SU056 was determined using the HPLC/MS MRM method with each of the three protein-free plasma fractions.[32]

[2] = tested on: TNBC cells (MDA-MB-231, MDA-MB-468, SUM159, 4T1, EMT6); experiment: Clonogenic (colony-formation) assay; assay type: cell-based
Procedure: We performed a clonogenic assay to check the effect of SU056 on clonal expansion potential of MDA-MB-231, MDA-MB-468, SUM159, 4T1, EMT6, and E0771 cells on tissue culture plates. MDA-MB-231 (1000 cells), MDA-MB-468 (1000 cells), SU159 (300 cells), 4T1 (300 cells), and EMT6 (300 cells), were seeded and grown for 24 h in complete media onto 12-well culture plate. Cells were treated with the specific concentrations of SU056 for 7–10 days in complete media. Plates were processed for crystal violet staining, and the number of colonies was counted for each well. Colonies were scanned for confluency area using a Tecan multimode plate reader.

MA2821-PDX-TNBC = experiment: Patient-derived xenograft; assay type: in vivo, mouse; details: 50 mg/kg orally, NSG mice
Source text: (§1) Different patient-derived xenograft (PDX) of TNBC were used in this study. The Institutional Animal Care & Use Program of Oregon Health and Science University approved the protocol (#IP00003247). SUTI151-PDX-TNBC was kindly provided by Stefanie S. Jeffrey, MD, Stanford University, CA, USA.[48] CA1616-PDX-TNBC, CA1262-PDX-TNBC, and MA2821-PDX-TNBC were procured from the NCI Patient-Derived Models Repository (PDMR). Information of the PDX samples from NCI can be accessed at https://pdmr.cancer.gov/models/pdx.htm. 6–8 weeks old NSG (female) mice were anesthetized with isoflurane and tumor cells were xenografted into 5th mammary fat pad. Post-xenograft, once tumors reached a size of 50–100 mm^3, SU056 treatment (50 mg/kg body weight administered by oral gavage, 5 days per week) was started. At the end of treatment, mice were euthanized under deep anesthesia and tumors were surgically removed, measured, and weighed.

CA1616-PDX-TNBC = experiment: Patient-derived xenograft; assay type: in vivo, mouse; details: 50 mg/kg orally, NSG mice
Source text: as §1

SUTI151-PDX-TNBC = experiment: Patient-derived xenograft; assay type: in vivo, mouse; details: 50 mg/kg orally, NSG mice
Source text: as §1

CA1262-PDX-TNBC = experiment: Patient-derived xenograft; assay type: in vivo, mouse; details: 50 mg/kg orally, NSG mice
Source text: as §1

MDA-MB-231 cells = experiment: Cell cycle analysis (PI, flow cytometry); assay type: cell-based, human
Procedure: (§2) TNBC cells (MDA-MB-231, MDA-MB-468, and SUM159) were seeded (40,000 cells per well) in 12 well plates and grown in regular conditions. The next day, cells were treated with DMSO (control) and indicated SU056 concentrations. At the end of each time point, cells were processed for PI staining as described earlier.[49] Synchronization of cells in G2/M phase was done using nocodazole (200 nM for 16 h) followed by SU056 treatment for 24 h. Cell cycle distribution was then analyzed by flow cytometry using a BD FACS Calibur (BD, USA).

MDA-MB-468 cells = experiment: Cell cycle analysis (PI, flow cytometry); assay type: cell-based, human
Procedure: as §2

[3] = mouse, female C57BL/6J mice, plasma
[4] = nocodazole 200 nM 16 h, then SU056 24 h

Q: What does the source list for `O=C1OCC2=C1C(c1cccc(F)c1)c1cc3c(cc1N2CCO)OCO3` (stereo not shown) [SU056, 9-(3-fluorophenyl)-5-(2-hydroxyethyl)-6,9-dihydro-[1,3]dioxolo[4,5-g]furo[3,4-b]quinolin-8(5H)-one]?
A: YB-1 and RPL11 interaction [1]: inhibits; time a cytotoxic concentration remained in the plasma (Pharmacokinetics study; mice): up to 6 h; half-life (Pharmacokinetics study; female, C57BL/6J, mouse, plasma, po, 20 mg/kg, female C57BL/6J mice, plasma, read-out: half-life (T1/2)): ~60 min; Cmax (Pharmacokinetics study; [3]): 9980 ng/mL and 27 µM; Tmax (Pharmacokinetics study; [3]): 15 min; clonogenic potential ([2]; 0.5 μM, all TNBC cell lines): strong suppression; number of colonies formed compared to untreated controls ([2]; 0.1, 0.25, and 0.5 μM, 7–10 days): significantly decreased; tumor growth decreased (MA2821-PDX-TNBC): 51.35%; tumor weight reduced (MA2821-PDX-TNBC): 48.89%; tumor volume reduced compared to vehicle control (CA1616-PDX-TNBC): 63.1%; tumor weight decreased (CA1616-PDX-TNBC): 43.6%; reduction in tumor weight (SUTI151-PDX-TNBC): 29%; tumor volume reduced compared to control (SUTI151-PDX-TNBC): 37%; tumor volume reduced compared to vehicle control (CA1262-PDX-TNBC): 49.8%; tumor weight decreased (CA1262-PDX-TNBC): 34.67%; cells in G2/M phase (MDA-MB-231 cells; 24 h, control 12%): 34%; cell death in nocodazole-synchronized cells (MDA-MB-231 cells; [4]): increased cell death; cell cycle effect (MDA-MB-468 cells; 0.5, 1.0, and 2.0 μM, 12 and 24 h): G2/M phase arrest; cell death in nocodazole-synchronized cells (MDA-MB-468 cells; [4]): increased cell death
